# Assay results published in ChEMBL document CHEMBL5244215, “Recent advancement of piperidine moiety in treatment of cancer- A review” (Eur J Med Chem, 2018).
# Structures can show the parent of a compound that is named as a salt.
# Columns and labels:
# SNB-19 = test: cells; type: functional; conditions: Homo sapiens, time 72 hrs, read-out: ED50 (the source's name)
# Description: Antiproliferative activity against human SNB-19 cells assessed as cell growth inhibition incubated for 72 hrs by WST-1 assay
# MCF7 = test: cells; type: functional; conditions: Homo sapiens, time 48 hrs
# Description: Growth inhibition at human MCF7 cells incubated for 48 hrs by SRB assay
# CCRF-CEM [1] = test: cells; type: functional, cell-based; conditions: Homo sapiens, 48 h
# PANC-1 = test: cells; type: functional; conditions: Homo sapiens, time 48 hrs
# Description: Growth inhibition at human PANC-1 cells incubated for 48 hrs by SRB assay
# K562 [2] = test: cells; type: functional, cell-based; conditions: Homo sapiens
# Description: Antileukemic activity against human K562 cells assessed as inhibition of cell growth incubated for 48 to 72 hrs by MTT assay
# CCRF-CEM [3] = test: cells; type: functional, cell-based; conditions: Homo sapiens
# Description: Antileukemic activity against human CEM cells assessed as inhibition of cell growth incubated for 48 to 72 hrs by MTT assay
# SiHa = test: cells; type: functional; conditions: Homo sapiens, time 48 hrs
# Description: Growth inhibition at human SiHa cells incubated for 48 hrs by SRB assay
# IMR-32 [4] = test: cells; type: functional, cell-based; conditions: Homo sapiens, IMR-32, 0.5 h
# Description: Cytotoxicity against human IMR-32 cells assessed as inhibition of cell growth incubated for 30 mins by SRB assay
# HSC-3 = test: cells; type: functional; conditions: Homo sapiens, time 48 hrs
# Description: Cytotoxicity against human HSC-3 cells assessed as reduction in cell viability incubated for 48 hrs by MTT assay
# Ca9-22 = test: cells; type: functional; conditions: Homo sapiens, time 48 hrs
# Description: Cytotoxicity against human Ca9-22 cells assessed as reduction in cell viability incubated for 48 hrs by MTT assay
# HSC-4 = test: cells; type: functional; conditions: Homo sapiens, time 48 hrs
# Description: Cytotoxicity against human HSC-4 cells assessed as reduction in cell viability incubated for 48 hrs by MTT assay
# HSC-2 = test: cells; type: functional; conditions: Homo sapiens, time 48 hrs
# Description: Cytotoxicity against human HSC-2 cells assessed as reduction in cell viability incubated for 48 hrs by MTT assay
# K562 [5] = test: cells; type: functional, cell-based; conditions: Homo sapiens, K562, 48 h
# cells [6] = type: functional, cell-based; conditions: Homo sapiens, QBC939, light or radiation study, 24 h
# Description: Phototoxicity against human QBC939 cells assessed as inhibition of cell growth incubated for 24 hrs followed by irradiated with 54 J/cm^2 of light dose and measured after 24 hrs by MTT colorimetric assay
# MDA-MB-231 = test: cells; type: functional; conditions: Homo sapiens, time 48 hrs
# Description: Growth inhibition at human MDA-MB-231 cells incubated for 48 hrs by SRB assay
# cells [7] = type: functional, cell-based, Molt 4/C8; conditions: Homo sapiens, Molt4/C8, 48 h
# L1210 = test: cells; type: functional, cell-based; conditions: Mus musculus, L1210, 48 h
# K562 [8] = test: cells; type: functional, cell-based; conditions: Homo sapiens; remark: listed apart in the source
# Description: Antiproliferative activity against human K562 cells assessed as inhibition of cell proliferation incubated for 48 to 72 hrs by MTT assay
# REH = test: cells; type: functional, cell-based; conditions: Homo sapiens
# Description: Antiproliferative activity against human REH cells assessed as inhibition of cell proliferation incubated for 48 to 72 hrs by MTT assay
# in vitro = conditions: human, wi-38
# COLO 205 [9] = test: cells; type: functional, cell-based; conditions: Homo sapiens, COLO 205, 48 h
# HT-29 = test: cells; type: functional, cell-based; conditions: Homo sapiens, HT-29, 48 h
# HCT-15 = test: cells; type: functional, cell-based; conditions: Homo sapiens, HCT-15, 48 h
# COLO 205 [10] = test: cells; type: functional, cell-based; conditions: Homo sapiens, COLO 205, 0.5 h
# Description: Cytotoxicity against human COLO 205 cells assessed as inhibition of cell growth incubated for 30 mins by SRB assay
# HCT-116 = test: cells; type: functional, cell-based; conditions: Homo sapiens, HCT-116, 48 h
# KM12 = test: cells; type: functional, cell-based; conditions: Homo sapiens, KM12, 48 h
# SW-620 = test: cells; type: functional, cell-based; conditions: Homo sapiens, SW-620, 48 h
# HCC 2998 = test: cells; type: functional, cell-based; conditions: Homo sapiens, HCC 2998, 48 h
# A549 = test: cells; type: functional, cell-based; conditions: Homo sapiens, A549, 48 h
# SK-N-SH = test: cells; type: functional, cell-based; conditions: Homo sapiens, 48 h
# HepG2 = test: cells; type: functional, cell-based; conditions: Homo sapiens, HepG2, 48 h
# Description: Antiproliferative activity against human HepG2 cells assessed as reduction in cell viability incubated for 48 hrs by MTT spectrophotometric assay
# BEL-7404 tumor cell line = test: cells; type: functional, cell-based; conditions: Homo sapiens, BEL-7404, 72 h
# Description: Antiproliferative activity against human BEL-7404 tumor cell line assessed as inhibition of cell proliferation incubated for 72 hrs by MTT assay
# P388 = test: cells; type: functional, cell-based; conditions: Mus musculus, P388, 48 h
# animal or person = type: functional, organism-based; conditions: Homo sapiens, QBC939, light or radiation study, 336 h
# IMR-32 [11] = test: cells; type: functional; conditions: Homo sapiens, time 48 hrs
# Description: Growth inhibition at human IMR-32 cells incubated for 48 hrs by SRB assay
# NCI-H3122 = test: cells; type: functional, cell-based; conditions: Homo sapiens
# Description: Antiproliferative activity against human NCI-H3122 cells assessed as inhibition of cell proliferation
compound,measurement,setting,value
Cn1cnc2nc(SCCN3CCCCC3)nc(SCCN3CCCCC3)c21,EC50,SNB-19,9.18 µg/mL
O=C(/C=C/c1ccc(Cl)cc1)c1ccc(OCCN2CCCCC2)cc1,GI50,MCF7,< 10 µM
O=C1/C(=C/c2ccccc2)CN(C(=O)c2ccc(/C=C/C(=O)c3ccccc3)cc2)C/C1=C\c1ccccc1,IC50,CCRF-CEM [1],1.58 µM
COc1ccc(CNC(=O)NC2CCN(c3cc(-c4ccc(OC)cc4F)ncn3)CC2)cc1,GI50,PANC-1,0.47 µM
COc1ccc(C(=O)c2ccc(OCC(=O)N3CCC(CCCC4CCN(C(=S)Nc5ccc(Cl)cc5)CC4)CC3)cc2)c(OC)c1,IC50,K562 [2],2.1 µM
same,IC50,CCRF-CEM [3],2.1 µM
COC(=O)c1ccc(NC(=O)NC2CCN(c3cc(-c4ccc(OC)cc4F)ncn3)CC2)cc1,GI50,SiHa,0.22 µM
CN1OC[C@@H]2CN(c3ccccc3)c3oc4cc(Cl)ccc4c(=O)c3[C@@H]21,IC50,IMR-32 [4],10.1 µM
COc1cc(/C=C2\Cc3ccccc3C2=O)cc(CN2CCCCC2)c1O,CC50,HSC-3,8.4 µM
same,CC50,Ca9-22,6.5 µM
same,CC50,HSC-4,9.9 µM
same,CC50,HSC-2,7.7 µM
c1cc2c(cc1CN1CCC(=NN=C3CCN(Cc4ccc5c(c4)OCO5)CC3)CC1)OCO2,IC50,K562 [5],6.35 µg/mL
COC(C)c1c(C)c2cc3nc(cc4[nH]c(cc5nc(cc1[nH]2)C(C)=C5CCC(=O)O)c(CCC(=O)O)c4C)C(C)=C3C(C)O (stereo not drawn),IC50,cells [6],9.46 µM
COc1ccc(CNC(=O)NC2CCN(c3cc(-c4ccc(Oc5ccccc5)cc4)ncn3)CC2)cc1,GI50,MDA-MB-231,0.2 µM
COc1ccc(C(=O)c2ccc(OCC(=O)N3CCC(CCCC4CCN(C(=O)Nc5ccc(Cl)cc5)CC4)CC3)cc2)c(OC)c1,IC50,K562 [2],1.6 µM
same,IC50,CCRF-CEM [3],2 µM
O=C1/C(=C/c2ccccc2)CN(C(=O)c2ccc(/C=C/C(=O)c3ccc(O)cc3)cc2)C/C1=C\c1ccccc1,IC50,cells [7],1.6 µM
same,IC50,L1210,5.34 µM
COc1cccc2c1C(=O)c1c(O)c3c(c(O)c1C2=O)C[C@@](O)(C(=O)CO)C[C@@H]3O[C@H]1C[C@H](N)[C@H](O)[C@H](C)O1 [DOXORUBICIN HYDROCHLORIDE],IC50,IMR-32 [4],1.7 µM
O=C(/C=C/c1ccc(OCCN2CCCCC2)cc1)c1ccc(F)cc1,GI50,MCF7,< 10 µM
O=C(c1ccc(F)c([N+](=O)[O-])c1)N1CCC(CCCC2CCNCC2)CC1,IC50,K562 [8],2 µM
same,IC50,REH,2.3 µM
COc1cc(/C=C/C(=O)N2CCC=C(Cl)C2=O)cc(OC)c1OC,IC50 at 48 h,in vitro,> 60 µM
O=C(/C=C/c1ccccc1)c1ccc(OCCN2CCCC2)cc1,GI50,MCF7,< 10 µM
COc1ccc(C(=O)c2ccc(OCC(=O)N3CCC(CCCC4CCN(C(=O)Nc5ccc(F)cc5)CC4)CC3)cc2)c(OC)c1,IC50,K562 [2],2.2 µM
same,IC50,CCRF-CEM [3],2.3 µM
CCN1CC[C@@](O)(c2ccc(Oc3ccc(C)cc3)cc2)[C@H](C(=O)c2ccc(Oc3ccc(C)cc3)cc2)C1,IC50,COLO 205 [9],12 µM
same,IC50,HT-29,3.31 µM
same,IC50,HCT-15,3.98 µM
O=c1[nH]cc(F)c(=O)[nH]1 [FLUOROURACIL],IC50,COLO 205 [10],27.7 µM
same,IC50,K562 [5],8.48 µg/mL
CCN1CC[C@@](O)(c2ccc(Oc3ccc(Cl)cc3)cc2)[C@H](C(=O)c2ccc(Oc3ccc(Cl)cc3)cc2)C1,IC50,HCT-116,3.8 µM
same,IC50,KM12,2.57 µM
O=C(/C=C/c1ccccc1)c1ccc(OCCN2CCCCC2)cc1,GI50,MCF7,< 10 µM
CCN1CC[C@@](O)(c2ccc(Oc3ccccc3)cc2)[C@H](C(=O)c2ccc(Oc3ccccc3)cc2)C1,IC50,SW-620,6.61 µM
same,IC50,HCC 2998,12 µM
COc1ccc(/C=C/C(=O)c2ccc(OCCN3CCCCC3)cc2)cc1,GI50,MCF7,< 10 µM
COC(=O)C1C(=O)CC(c2ccc(OC)cc2)N(c2ccccc2)C1c1ccc(OC)cc1 (stereo not drawn),IC50,A549,27 µM
same,IC50,SK-N-SH,11 µM
O=C(NC1CCN(Cc2c(F)cccc2F)CC1)c1ccc(Oc2ccccc2)cc1,IC50,HepG2,0.25 µM
CCOC(=O)C12CC3CC(C1)CC(C(=O)OC1CC(C)(C)N(O)C(C)(C)C1)(C3)C2,IC50,BEL-7404 tumor cell line,4.33 µM
O=C1/C(=C/c2ccccc2)CN(C(=O)c2ccc(/C=C/C(=O)c3ccc([N+](=O)[O-])cc3)cc2)C/C1=C\c1ccccc1,IC50,P388,0.221 µM
COc1ccc(/C2=C3\C=CC(=N3)/C(c3ccc(OC)cc3)=c3/cc/c([nH]3)=C(\c3ccc(OC)cc3)C3=NC(C(N4CCCCC4)=C3)C(c3ccc(OC)cc3)c3ccc2[nH]3)cc1 (stereo not drawn),IC50,animal or person,5.48 µM
O=C(Nc1ccccc1)NC1CCN(c2cc(-c3ccc(Oc4ccccc4)cc3)ncn2)CC1,GI50,IMR-32 [11],0.65 µM
O=C(/C=C/c1ccc(OCCN2CCCCC2)cc1)c1ccccc1,GI50,MCF7,< 10 µM
COc1cc(C2CCN(C(=O)CO)CC2)ccc1Nc1ncc(C(F)(F)F)c(Nc2ccc(C3CCN(C(=O)CO)CC3)cc2OC)n1,IC50,NCI-H3122,0.046 µM
CN1O[C@@H](c2ccccc2)[C@@H]2CN(c3ccccc3)c3oc4ccccc4c(=O)c3[C@@H]21,IC50,COLO 205 [10],12.6 µM
